Data on 1 compound can be found in ChEMBL document CHEMBL1201862, “PubChem BioAssay data set” (2004).

A short description of assay [1]: Fluorescence-based cell-based high throughput dose response assay for inhibitors of the interaction of nucleotide-binding oligomerization domain containing 2 (NOD2) and the receptor-interacting serine-threonine kinase 2 (RIPK2). Type of assay: functional. To be noted: Homo sapiens.
Assay [2] in a line: DRD fibroblast viability loss – cell-based, non-viral oncogenic, luminescence, dose response (AID 1934). Type of assay: functional. To be noted: Homo sapiens.
For assay [3], the system named is BJ. As to the kind of experiment: cells. The format is functional, cell-based. To be noted: Homo sapiens.
The target in assay [4] is C-C chemokine receptor type 6 (Homo sapiens, UniProt P51684). As to the kind of experiment: antagonism of CCR6 beta-arrestin recruitment – cell-based, luminescent beta-arrestin readout, dose response (AID 504728). Type of assay: functional. A general note: Activated receptors often draw arrestin, which recruitment assays turn into a signal.
Assay [5] can be described thus: viability loss in HeLa cells – cytotoxicity control for MgcRacGAP inhibitor project, dose response (AID 624300). The format is functional.
A short description of assay [6]: viability of HCT116 lacking mutant beta-catenin – cell-based, human colon tumor, dose response (AID 1045).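 Further: HCT116 colon tumor cells with beta catenin knocked out; cells exposed to compound for 60 hours.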 Type of assay: functional.
Assay [7] concerns the target G-protein coupled receptor 55 (Homo sapiens, UniProt Q9Y2T6). As to the kind of experiment: selective activators of receptor GPR55 – imaging, U2OS cells, beta-arrestin-GFP redistribution, primary screen (AID 1961). The format is functional.
The nature of assay [8]: viability of PTEN-deleted HCT116 cells – cell-based, HCT116 PTEN knockout, dose response (AID 1047).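 Further: HCT116 colon tumor cells with PTEN knocked out; cells exposed to compound for 60 hours before readout; potency for loss of cell viability measured by luminescence.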 The format is functional.
In assay [9] the test system is BJ. As to the kind of experiment: BJ-TERT fibroblast viability loss – cell-based, RAS-independent, luminescence, dose response (AID 1933). The format is functional. Particulars: Homo sapiens.
The target of another assay is Beta Lactamase (Pseudomonas aeruginosa, UniProt Q932Y6). As to the kind of experiment: BLA reporter interference, concentration series – BLA reporter cells, FRET fluorescence, artefact control for NOD2-RIPK2 interaction inhibitor project, dose response (AID 651552). Type of assay: functional, cell-based.
Assay [10] has as its system BJ. As to the kind of experiment: growth inhibition of engineered Ras-driven BJ cells – cell-based, alamar blue fluorescence, cherrypicked samples, dose response (AID 2631).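 Further: confirmatory dose-response assay in RAS-dependent BJ fibroblasts engineered with TERT, LT and ST, with cytotoxicity read by fluorescence.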 Type of assay: functional. Particulars: Homo sapiens. For orientation: Alamar Blue is a resazurin reagent that responds to reducing activity.
Assay [11] addresses T1, Rac GTPase-activating protein 1 (Homo sapiens, UniProt Q9H0H5).
T1 sequence (Q9H0H5 whole entry): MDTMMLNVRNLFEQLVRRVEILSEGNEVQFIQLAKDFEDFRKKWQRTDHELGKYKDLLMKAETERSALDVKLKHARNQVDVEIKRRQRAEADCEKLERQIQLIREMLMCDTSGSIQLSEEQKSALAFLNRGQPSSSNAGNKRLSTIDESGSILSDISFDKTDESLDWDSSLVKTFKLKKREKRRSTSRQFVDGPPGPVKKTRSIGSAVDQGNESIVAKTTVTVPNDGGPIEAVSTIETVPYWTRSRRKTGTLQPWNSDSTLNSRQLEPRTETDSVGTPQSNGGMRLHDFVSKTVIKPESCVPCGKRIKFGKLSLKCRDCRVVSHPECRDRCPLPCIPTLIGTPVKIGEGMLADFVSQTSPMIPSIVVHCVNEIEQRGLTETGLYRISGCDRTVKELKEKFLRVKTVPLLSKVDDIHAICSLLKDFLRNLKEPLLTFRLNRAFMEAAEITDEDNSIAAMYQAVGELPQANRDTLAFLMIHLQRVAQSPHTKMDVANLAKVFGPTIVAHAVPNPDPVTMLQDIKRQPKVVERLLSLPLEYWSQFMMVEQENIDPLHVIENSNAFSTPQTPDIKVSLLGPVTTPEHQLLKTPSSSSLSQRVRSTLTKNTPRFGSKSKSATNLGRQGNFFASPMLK
As to the kind of experiment: blockers of MgcRacGAP-driven Rac1 GTP hydrolysis – biochemical, ADP Hunter fluorescence, primary and confirmatory, confirmation (AID 624330). The format is functional.

Another assay deals with INS1. As to the kind of experiment: INS-1E survival protection against cytokine death – cell-based, luminescence, retest, dose response (AID 449756).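 Further: cell death triggered by IL-1 beta plus TNF-alpha plus IFN-gamma mixture; protective hits raise ATP signal compared with cytokine alone wells.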 To be noted: Rattus norvegicus. The format is functional.
The target in a further assay is Beta-galactosidase (Escherichia coli, UniProt Q8VNN2). As to the kind of experiment: detection-enzyme interference by beta-gal modulators – biochemical, E. coli enzyme, set 3, artefact control for CCR6 antagonist project, dose response (AID 504712). The format is functional.

Structures are written as SMILES. Calls of active or inactive are those of the source.

Sequence of Beta Lactamase (Q932Y6 whole entry): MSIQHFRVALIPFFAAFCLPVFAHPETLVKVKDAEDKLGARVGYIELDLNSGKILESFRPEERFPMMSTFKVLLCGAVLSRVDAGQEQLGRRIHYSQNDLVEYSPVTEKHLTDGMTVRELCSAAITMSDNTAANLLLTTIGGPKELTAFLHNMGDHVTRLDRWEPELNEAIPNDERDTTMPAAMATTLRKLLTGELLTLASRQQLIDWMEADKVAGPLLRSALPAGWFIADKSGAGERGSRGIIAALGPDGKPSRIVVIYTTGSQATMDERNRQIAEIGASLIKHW
Sequence of C-C chemokine receptor type 6 (P51684 whole entry): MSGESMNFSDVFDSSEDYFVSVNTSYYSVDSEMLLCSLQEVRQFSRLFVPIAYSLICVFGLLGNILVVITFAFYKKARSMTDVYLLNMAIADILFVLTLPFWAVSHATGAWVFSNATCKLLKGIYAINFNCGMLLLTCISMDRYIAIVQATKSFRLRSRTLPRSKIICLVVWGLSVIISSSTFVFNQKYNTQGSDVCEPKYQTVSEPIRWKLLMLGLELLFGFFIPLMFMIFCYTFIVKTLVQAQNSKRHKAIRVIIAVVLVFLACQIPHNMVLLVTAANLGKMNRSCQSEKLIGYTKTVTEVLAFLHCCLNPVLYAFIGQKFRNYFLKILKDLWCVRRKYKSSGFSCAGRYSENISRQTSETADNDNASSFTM
Sequence of Beta-galactosidase (Q8VNN2 whole entry): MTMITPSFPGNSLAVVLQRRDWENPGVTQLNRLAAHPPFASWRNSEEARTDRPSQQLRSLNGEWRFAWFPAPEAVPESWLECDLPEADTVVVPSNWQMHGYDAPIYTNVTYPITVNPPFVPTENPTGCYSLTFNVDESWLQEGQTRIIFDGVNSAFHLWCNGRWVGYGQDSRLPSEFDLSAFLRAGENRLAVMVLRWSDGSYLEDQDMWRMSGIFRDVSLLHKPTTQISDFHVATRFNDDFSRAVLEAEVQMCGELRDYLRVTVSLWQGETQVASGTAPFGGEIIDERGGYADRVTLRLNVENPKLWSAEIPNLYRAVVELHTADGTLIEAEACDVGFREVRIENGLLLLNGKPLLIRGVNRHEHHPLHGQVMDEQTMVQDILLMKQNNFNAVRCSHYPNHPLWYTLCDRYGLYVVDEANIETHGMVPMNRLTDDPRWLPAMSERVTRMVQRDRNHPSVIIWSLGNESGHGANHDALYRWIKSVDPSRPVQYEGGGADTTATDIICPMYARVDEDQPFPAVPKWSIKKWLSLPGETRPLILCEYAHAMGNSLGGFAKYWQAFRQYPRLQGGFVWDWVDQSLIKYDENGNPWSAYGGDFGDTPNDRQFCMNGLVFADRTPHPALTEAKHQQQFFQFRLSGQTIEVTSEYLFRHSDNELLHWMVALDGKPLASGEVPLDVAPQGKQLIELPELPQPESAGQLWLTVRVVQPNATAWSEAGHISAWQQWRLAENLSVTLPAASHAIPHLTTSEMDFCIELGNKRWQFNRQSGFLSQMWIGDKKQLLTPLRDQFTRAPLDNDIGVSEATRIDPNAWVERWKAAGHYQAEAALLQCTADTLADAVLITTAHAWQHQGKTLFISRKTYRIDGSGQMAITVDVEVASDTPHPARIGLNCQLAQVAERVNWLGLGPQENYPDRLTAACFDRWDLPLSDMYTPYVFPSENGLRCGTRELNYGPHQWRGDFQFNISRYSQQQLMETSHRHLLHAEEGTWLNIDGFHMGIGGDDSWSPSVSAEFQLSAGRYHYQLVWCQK
Sequence of G-protein coupled receptor 55 (Q9Y2T6 whole entry): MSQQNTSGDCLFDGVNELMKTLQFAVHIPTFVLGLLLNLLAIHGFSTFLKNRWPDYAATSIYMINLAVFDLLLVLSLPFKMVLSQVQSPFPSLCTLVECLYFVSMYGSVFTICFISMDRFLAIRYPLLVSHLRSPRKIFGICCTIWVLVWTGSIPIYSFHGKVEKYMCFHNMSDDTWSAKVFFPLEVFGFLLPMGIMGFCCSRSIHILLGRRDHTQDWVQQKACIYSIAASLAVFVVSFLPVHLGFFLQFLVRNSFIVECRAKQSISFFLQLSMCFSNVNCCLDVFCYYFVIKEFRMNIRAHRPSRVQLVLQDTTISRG

In the case of `COC(=O)c1ccc2c(c1)C(C)(C)C(/C=C/c1ccc(OC)c(OC)c1OC)=[N+]2C`, the IC50 is 1.93 µM (active) in [1]; 21.4 µM (inactive) in assay [4]; 39.1 µM (inactive) on Beta Lactamase; 25.7 µM (active) in assay [11]; > 66.6 µM (inactive) on Beta-galactosidase. Further, the EC50 in [2] was 3.71 µM (active); in the assay with BJ [3], 14.4 µM (active); in assay [6] it was 3.84 µM (active); in assay [7], 1.51 µM (active); in assay [8], 5.04 µM (active); with BJ [9], 3.9 µM (inconclusive). The EC50 in the assay on BJ [10] was 1.3 µM (inconclusive). In [5], the CC50 was 60.4 µM (active). Besides, the AC50 in the assay on INS1 is 2.09 µM (active).

A word on the IC50: it is the concentration that inhibits the measured activity by half. The EC50 is the concentration that produces a half-maximal response. Broadly, the CC50 is the concentration at which the toxic effect on the cells reaches its halfway point. The term AC50 denotes the midpoint of the concentration-response curve, whichever way the signal moves.
